Among the data in PubChem BioAssay AID330 (DTP/NCI, 2004) are T/C values, retold here.

SMILES strings stand for the structures. Where “and” joins values, the source holds several entries; their conditions need not be identical. Equal values may be shown once. Toxic doses and inconclusive results are not listed.

In the test the test system is P388 leukemia ip, CD2F1 mice, survival T/C. The test is described as follows: NCI In Vivo Anticancer Drug Screen. Data for tumor model P388 Leukemia (intraperitoneal) in CD2F1 (CDF1) mice. The following applies: endpoint: median survival time, higher = longer survival. In short, it runs like this: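 Mice carrying the transplanted tumor received test compound or vehicle. Survival was recorded in each group, and the value is the treated-group measurement divided by that of the vehicle-treated control group.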

Setting [1] is: dose: 50.0 mg/kg/injection, schedule: Q01DX009 (ip), vehicle: Klucel (hydroxypropylcellulose) (HPC).
Where [2] appears, read: dose: 100.0 mg/kg/injection, schedule: Q01DX009 (ip), vehicle: Klucel (hydroxypropylcellulose) (HPC).
The mark [3] stands for this setting: dose: 200.0 mg/kg/injection, schedule: Q01DX009 (ip), vehicle: Klucel (hydroxypropylcellulose) (HPC).
[4] abbreviates: dose: 60.0 mg/kg/injection, schedule: Q01DX005 (ip), vehicle: saline with Tween-80.
[5] abbreviates: dose: 120.0 mg/kg/injection, schedule: Q01DX005 (ip), vehicle: saline with Tween-80.

For `CCOP(=O)(CC1OCC2(CO1)COC(CP(=O)(OCC)OCC)OC2)OCC` (stereo not given), the T/C is, setting by setting: (dose: 12.5 mg/kg/injection, schedule: Q01DX009 (ip), vehicle: saline) 87 % of control; (dose: 25.0 mg/kg/injection, schedule: Q01DX009 (ip), vehicle: saline) 94 % of control; (dose: 50.0 mg/kg/injection, schedule: Q01DX009 (ip), vehicle: saline) 101 % of control and 92 % of control; (dose: 100.0 mg/kg/injection, schedule: Q01DX009 (ip), vehicle: saline) 106 % of control; (dose: 200.0 mg/kg/injection, schedule: Q01DX009 (ip), vehicle: saline) 100 % of control.
For `CC1CCCC(C)N1NC(=O)C(C)(C)C` (stereo not given), the T/C is, setting by setting: (dose: 50.0 mg/kg/injection, schedule: Q01DX005 (ip), vehicle: saline) 99 % of control; (dose: 100.0 mg/kg/injection, schedule: Q01DX005 (ip), vehicle: saline) 115 % of control; (dose: 200.0 mg/kg/injection, schedule: Q01DX005 (ip), vehicle: saline) 101 % of control.
As to `N#CC(CC[N+](=O)[O-])(c1ccccc1)C(c1ccccc1)[N+](=O)[O-]` (stereo not given), the T/C (dose: 12.5 mg/kg/injection, schedule: Q01DX001 (ip), vehicle: saline with Tween-80) is 87 % of control and the T/C (dose: 25.0 mg/kg/injection, schedule: Q01DX001 (ip), vehicle: saline with Tween-80) was 96 % of control.
In the case of `COc1ccc(C(CC(=O)O)C(N)C(=O)O)cc1` (stereo not given), the T/C runs as follows: (dose: 50.0 mg/kg/injection, schedule: Q01DX009 (ip), vehicle: suspension in saline) 88 % of control; (dose: 100.0 mg/kg/injection, schedule: Q01DX009 (ip), vehicle: suspension in saline) 87 % of control; (dose: 200.0 mg/kg/injection, schedule: Q01DX009 (ip), vehicle: suspension in saline) 95 % of control.
Consider `NC(=O)c1nccnc1Cl`, for which the T/C runs as follows: under setting [1], 101 % of control; under setting [2], 100 % of control; under setting [3], 114 % of control.
With `C=Cc1cc(C)ccc1C(=O)OCCCCCCCCCCCC`, the T/C runs as follows: under setting [1], 98 % of control; under setting [2], 101 % of control; under setting [3], 98 % of control.
Regarding `C=C(C)C1CC=C(C)/C(=N/NC(=O)c2ccccn2)C1` (stereo not given), the T/C was 111 % of control (dose: 100.0 mg/kg/injection, schedule: Q04DX003 (ip), vehicle: Klucel (hydroxypropylcellulose) (HPC)); 94 % of control (dose: 200.0 mg/kg/injection, schedule: Q04DX003 (ip), vehicle: Klucel (hydroxypropylcellulose) (HPC)); 94 % of control (dose: 400.0 mg/kg/injection, schedule: Q04DX003 (ip), vehicle: Klucel (hydroxypropylcellulose) (HPC)).
Regarding `C/C=C/c1cc2n(c1)C(=O)c1cc(OC3OC(C)C(NC)C(C)(O)C3O)c(C)c(O)c1NC2O` (stereo not given), the T/C reads like this: (dose: 0.02 mg/kg/injection, schedule: Q04DX003 (ip), vehicle: saline) 94 % of control; (dose: 0.04 mg/kg/injection, schedule: Q04DX003 (ip), vehicle: saline) 89 % of control; (dose: 0.3 micrograms/kg/injection, schedule: Q03DX003 (ip), vehicle: DMSO) 110 % of control; (dose: 1.0 micrograms/kg/injection, schedule: Q01DX001 (ip), vehicle: DMSO) 120 % of control; (dose: 1.0 micrograms/kg/injection, schedule: Q01DX009 (ip), vehicle: saline) 100 % of control; (dose: 4.0 micrograms/kg/injection, schedule: Q01DX009 (ip), vehicle: saline) 117 % of control. The T/C reads like this: (dose: 4.0 micrograms/kg/injection, schedule: Q04DX003 (ip), vehicle: DMSO) 120 % of control; (dose: 16.0 micrograms/kg/injection, schedule: Q01DX001 (ip), vehicle: DMSO) 173 % of control; (dose: 16.0 micrograms/kg/injection, schedule: Q03DX003 (ip), vehicle: DMSO) 180 % of control; (dose: 16.0 micrograms/kg/injection, schedule: Q04DX003 (ip), vehicle: DMSO) 123 % of control; (dose: 32.0 micrograms/kg/injection, schedule: Q01DX001 (ip), vehicle: DMSO) 95 % of control.
For `CCCCCCCCCCCC(=O)NC1CC(O[C@H]2C[C@](O)(C(C)=O)Cc3c(O)c4c(c(O)c32)C(=O)c2c(OC)cccc2C4=O)OC(C)C1O` (stereo not given in full), the T/C by setting is: (dose: 0.75 mg/kg/injection, schedule: Q01DX009 (ip), vehicle: other) 119 % of control; (dose: 2.0 mg/kg/injection, schedule: Q04DX003 (ip), vehicle: other) 91 % of control; (dose: 4.0 mg/kg/injection, schedule: Q04DX003 (ip), vehicle: other) 107 % of control; (dose: 6.0 mg/kg/injection, schedule: Q01DX009 (ip), vehicle: other) 150 % of control; (dose: 8.0 mg/kg/injection, schedule: Q04DX003 (ip), vehicle: other) 98 % of control; (dose: 12.0 mg/kg/injection, schedule: Q01DX009 (ip), vehicle: other) 158 % of control. The T/C is 102 % of control and 111 % of control (dose: 16.0 mg/kg/injection, schedule: Q04DX003 (ip), vehicle: other); 114 % of control and 120 % of control (dose: 32.0 mg/kg/injection, schedule: Q04DX003 (ip), vehicle: other); 120 % of control (dose: 64.0 mg/kg/injection, schedule: Q04DX003 (ip), vehicle: other); 123 % of control (dose: 128.0 mg/kg/injection, schedule: Q04DX003 (ip), vehicle: other); 100 % of control (dose: 256.0 mg/kg/injection, schedule: Q04DX003 (ip), vehicle: other).
Take `CCOC(=O)c1nc(SC)sc1N`: the T/C is 95 % of control under setting [4] and 102 % of control under setting [5].
Take `O=C(CCCc1ccc(N(CCCl)CCCl)cc1)Nc1ncccn1`: the T/C is, setting by setting: (dose: 5.3 mg/kg/injection, schedule: Q01DX009 (ip), vehicle: Klucel (hydroxypropylcellulose) (HPC)) 95 % of control; (dose: 8.0 mg/kg/injection, schedule: Q01DX009 (ip), vehicle: Klucel (hydroxypropylcellulose) (HPC)) 159 % of control; (dose: 12.0 mg/kg/injection, schedule: Q01DX009 (ip), vehicle: Klucel (hydroxypropylcellulose) (HPC)) 150 % of control; (dose: 18.0 mg/kg/injection, schedule: Q01DX009 (ip), vehicle: Klucel (hydroxypropylcellulose) (HPC)) 159 % of control.
As for `COc1ccc2[nH]c3cc4c(=O)c5cc(OC)ccc5[nH]c4cc3c(=O)c2c1`, the T/C under setting [1] is 96 % of control, the T/C under setting [2] is 100 % of control and the T/C under setting [3] is 100 % of control.
On to `Cc1cc(=O)c(C#N)c(C)o1`, for which the T/C is, setting by setting: under setting [4], 98 % of control; under setting [5], 97 % of control; (dose: 240.0 mg/kg/injection, schedule: Q01DX005 (ip), vehicle: saline with Tween-80) 90 % of control.
For the compound `CSCC(C)C(N)C(=O)O` (stereo not given), the T/C by setting is: under setting [1], 109 % of control; under setting [2], 105 % of control; under setting [3], 100 % of control.
On to `COc1ccc(-c2c(-c3ccccc3)c(=O)oc3cc(OC)ccc23)cc1`, for which the T/C under setting [4] was 91 % of control; the T/C under setting [5] is 87 % of control and 88 % of control.
In the case of `CC1(C)C(=O)C=C[C@]2(C)[C@H]3CC[C@]4(C)C(=CC[C@H]4c4ccoc4)[C@]3(C)[C@H](O)C[C@@H]12`, the T/C (dose: 7.81 mg/kg/injection, schedule: Q01DX005 (ip), vehicle: Klucel (hydroxypropylcellulose) (HPC)) was 98 % of control; the T/C (dose: 15.63 mg/kg/injection, schedule: Q01DX005 (ip), vehicle: Klucel (hydroxypropylcellulose) (HPC)) was 98 % of control; the T/C (dose: 31.25 mg/kg/injection, schedule: Q01DX005 (ip), vehicle: Klucel (hydroxypropylcellulose) (HPC)) is 95 % of control; the T/C (dose: 62.5 mg/kg/injection, schedule: Q01DX005 (ip), vehicle: Klucel (hydroxypropylcellulose) (HPC)) is 95 % of control; the T/C (dose: 125.0 mg/kg/injection, schedule: Q01DX005 (ip), vehicle: Klucel (hydroxypropylcellulose) (HPC)) is 93 % of control.
For `CC(=O)OCC1OC2OC(C)(OC(C)C)OC2C(OC(C)=O)C1OC(C)=O` (stereo not given), the T/C (dose: 4.0 mg/kg/injection, schedule: Q01DX009 (ip), vehicle: water) is 106 % of control; the T/C (dose: 8.0 mg/kg/injection, schedule: Q01DX009 (ip), vehicle: water) is 102 % of control; the T/C (dose: 16.0 mg/kg/injection, schedule: Q01DX009 (ip), vehicle: water) was 100 % of control; the T/C (dose: 32.0 mg/kg/injection, schedule: Q01DX009 (ip), vehicle: water) was 99 % of control; the T/C (dose: 50.0 mg/kg/injection, schedule: Q01DX009 (ip), vehicle: other) was 108 % of control; the T/C (dose: 64.0 mg/kg/injection, schedule: Q01DX009 (ip), vehicle: water) is 98 % of control. In addition, the T/C reads like this: (dose: 100.0 mg/kg/injection, schedule: Q01DX009 (ip), vehicle: other) 108 % of control; (dose: 200.0 mg/kg/injection, schedule: Q01DX009 (ip), vehicle: other) 102 % of control; (dose: 400.0 mg/kg/injection, schedule: Q01DX009 (ip), vehicle: other) 102 % of control.
